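Five compound concentrations were applied to cells in 96-well plates for 48 hours; endpoints were derived by simple linear interpolation of the resulting dose-response curve. GI50 is the concentration that inhibits growth by half.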 The source made the active and inactive calls. No stated cut-off is given here; in the data, active = GI50 up to about 1.1 µM and inactive = higher.
Tests used:
Test in all cases: NCI tumour cell line growth inhibition, 48 h
786-0 = tested on: 786-0
A549 = tested on: A549
ACHN = tested on: ACHN
BT-549 = tested on: BT-549
CAKI-1 = tested on: CAKI-1
CCRF-CEM = tested on: CCRF-CEM
COLO 205 = tested on: COLO 205
DU-145 = tested on: DU-145
EKVX = tested on: EKVX
HCC 2998 = tested on: HCC 2998
HCT-116 = tested on: HCT-116
HCT-15 = tested on: HCT-15
HL-60 = tested on: HL-60
HOP-62 = tested on: HOP-62
HT-29 = tested on: HT-29
Hs-578T = tested on: Hs-578T
IGROV-1 = tested on: IGROV-1
K562 = tested on: K562
KM12 = tested on: KM12
LOX IMVI = tested on: LOX IMVI
M14 = tested on: M14
MCF7 = tested on: MCF7
MDA-MB-231 = tested on: MDA-MB-231
MDA-MB-435 = tested on: MDA-MB-435
MDA-N = tested on: MDA-N
MOLT-4 = tested on: MOLT-4
Malme-3M = tested on: Malme-3M
NCI-H226 = tested on: NCI-H226
NCI-H23 = tested on: NCI-H23
NCI-H522 = tested on: NCI-H522
NCI/ADR-RES = tested on: NCI/ADR-RES
OVCAR-3 = tested on: OVCAR-3
OVCAR-4 = tested on: OVCAR-4
OVCAR-5 = tested on: OVCAR-5
OVCAR-8 = tested on: OVCAR-8
PC-3 = tested on: PC-3
RPMI-8226 = tested on: RPMI-8226
RXF 393 = tested on: RXF 393
SF-268 = tested on: SF-268
SF-295 = tested on: SF-295
SK-MEL-28 = tested on: SK-MEL-28
SK-MEL-2 = tested on: SK-MEL-2
SK-MEL-5 = tested on: SK-MEL-5
SK-OV-3 = tested on: SK-OV-3
SN12C = tested on: SN12C
SNB-19 = tested on: SNB-19
SNB-75 = tested on: SNB-75
SR = tested on: SR
SW-620 = tested on: SW-620
T47D = tested on: T47D
TK-10 = tested on: TK-10
U-251 = tested on: U-251
UACC-257 = tested on: UACC-257
UACC-62 = tested on: UACC-62
UO-31 = tested on: UO-31
A498 = tested on: A498
HOP-92 = tested on: HOP-92
NCI-H460 = tested on: NCI-H460
SF-539 = tested on: SF-539

CN1CC=C(c2cccn2C)CC1
GI50 (786-0): > 100 µM (inactive)
GI50 (A549): > 100 µM (inactive)
GI50 (ACHN): > 100 µM (inactive)
GI50 (BT-549): > 100 µM (inactive)
GI50 (CAKI-1): > 100 µM (inactive)
GI50 (CCRF-CEM): > 100 µM (inactive)
GI50 (COLO 205): > 100 µM (inactive)
GI50 (DU-145): > 100 µM (inactive)
GI50 (EKVX): > 100 µM (inactive)
GI50 (HCC 2998): > 100 µM (inactive)
GI50 (HCT-116): > 100 µM (inactive)
GI50 (HCT-15): > 100 µM
GI50 (HL-60): > 100 µM (inactive)
GI50 (HOP-62): > 100 µM (inactive)
GI50 (HT-29): > 100 µM (inactive)
GI50 (Hs-578T): > 100 µM (inactive)
GI50 (IGROV-1): > 100 µM (inactive)
GI50 (K562): > 100 µM (inactive)
GI50 (KM12): > 100 µM (inactive)
GI50 (LOX IMVI): > 100 µM (inactive)
GI50 (M14): > 100 µM (inactive)
GI50 (MCF7): > 100 µM (inactive)
GI50 (MDA-MB-231): > 100 µM (inactive)
GI50 (MDA-MB-435): > 100 µM (inactive)
GI50 (MDA-N): > 100 µM (inactive)
GI50 (MOLT-4): > 100 µM (inactive)
GI50 (Malme-3M): > 100 µM (inactive)
GI50 (NCI-H226): > 100 µM (inactive)
GI50 (NCI-H23): > 100 µM (inactive)
GI50 (NCI-H522): > 100 µM (inactive)
GI50 (NCI/ADR-RES): > 100 µM (inactive)
GI50 (OVCAR-3): > 100 µM (inactive)
GI50 (OVCAR-4): > 100 µM (inactive)
GI50 (OVCAR-5): > 100 µM (inactive)
GI50 (OVCAR-8): > 100 µM (inactive)
GI50 (PC-3): > 100 µM (inactive)
GI50 (RPMI-8226): > 100 µM (inactive)
GI50 (RXF 393): > 100 µM (inactive)
GI50 (SF-268): > 100 µM (inactive)
GI50 (SF-295): > 100 µM (inactive)
GI50 (SK-MEL-28): > 100 µM (inactive)
GI50 (SK-MEL-2): > 100 µM (inactive)
GI50 (SK-MEL-5): > 100 µM (inactive)
GI50 (SK-OV-3): > 100 µM (inactive)
GI50 (SN12C): > 100 µM (inactive)
GI50 (SNB-19): > 100 µM (inactive)
GI50 (SNB-75): > 100 µM (inactive)
GI50 (SR): > 100 µM (inactive)
GI50 (SW-620): > 100 µM (inactive)
GI50 (T47D): > 100 µM (inactive)
GI50 (TK-10): > 100 µM (inactive)
GI50 (U-251): > 100 µM (inactive)
GI50 (UACC-257): > 100 µM (inactive)
GI50 (UACC-62): > 100 µM (inactive)
GI50 (UO-31): > 100 µM (inactive)

O=C(O)CC1OCC=C2CN3CCC45C6=CC(=O)C(O)=C([N+](=O)[O-])C6=NC4C1C2CC35 (stereo not drawn)
GI50 (786-0): > 100 µM (inactive)
GI50 (A498): > 100 µM (inactive)
GI50 (A549): > 100 µM (inactive)
GI50 (ACHN): > 100 µM (inactive)
GI50 (BT-549): > 100 µM (inactive)
GI50 (CAKI-1): > 100 µM (inactive)
GI50 (CCRF-CEM): 18.1 µM (inactive)
GI50 (COLO 205): > 100 µM (inactive)
GI50 (DU-145): > 100 µM (inactive)
GI50 (EKVX): > 100 µM (inactive)
GI50 (HCC 2998): > 100 µM (inactive)
GI50 (HCT-116): > 100 µM (inactive)
GI50 (HCT-15): > 100 µM
GI50 (HL-60): 52 µM (inactive)
GI50 (HOP-62): > 100 µM (inactive)
GI50 (HOP-92): > 100 µM (inactive)
GI50 (HT-29): > 100 µM (inactive)
GI50 (Hs-578T): > 100 µM (inactive)
GI50 (IGROV-1): > 100 µM (inactive)
GI50 (K562): 92.3 µM (inactive)
GI50 (KM12): > 100 µM (inactive)
GI50 (LOX IMVI): 40.8 µM (inactive)
GI50 (M14): > 100 µM (inactive)
GI50 (MCF7): > 100 µM (inactive)
GI50 (MDA-MB-231): > 100 µM (inactive)
GI50 (MDA-MB-435): 17.2 µM (inactive)
GI50 (MDA-N): 44.7 µM (inactive)
GI50 (MOLT-4): 89.5 µM (inactive)
GI50 (Malme-3M): > 100 µM (inactive)
GI50 (NCI-H226): > 100 µM (inactive)
GI50 (NCI-H23): > 100 µM (inactive)
GI50 (NCI-H460): > 100 µM (inactive)
GI50 (NCI-H522): > 100 µM (inactive)
GI50 (NCI/ADR-RES): > 100 µM (inactive)
GI50 (OVCAR-3): > 100 µM (inactive)
GI50 (OVCAR-4): > 100 µM (inactive)
GI50 (OVCAR-5): > 100 µM (inactive)
GI50 (OVCAR-8): > 100 µM (inactive)
GI50 (PC-3): > 100 µM (inactive)
GI50 (RPMI-8226): 31 µM (inactive)
GI50 (RXF 393): > 100 µM (inactive)
GI50 (SF-268): > 100 µM (inactive)
GI50 (SF-295): > 100 µM (inactive)
GI50 (SF-539): > 100 µM (inactive)
GI50 (SK-MEL-28): > 100 µM (inactive)
GI50 (SK-MEL-2): > 100 µM (inactive)
GI50 (SK-MEL-5): > 100 µM (inactive)
GI50 (SK-OV-3): > 100 µM (inactive)
GI50 (SN12C): > 100 µM (inactive)
GI50 (SNB-19): > 100 µM (inactive)
GI50 (SNB-75): > 100 µM (inactive)
GI50 (SW-620): 47 µM (inactive)
GI50 (T47D): > 100 µM (inactive)
GI50 (TK-10): > 100 µM (inactive)
GI50 (U-251): > 100 µM (inactive)
GI50 (UACC-257): > 100 µM (inactive)
GI50 (UACC-62): 34.4 µM (inactive)
GI50 (UO-31): > 100 µM (inactive)

— ChEMBL document CHEMBL1201862, “PubChem BioAssay data set” (2004)
